Measured values published in patent US20250346584A1, “NOVEL KAPPA OPIOID LIGANDS” (The Scripps Research Institute, priority 2012, published 2025).

Target: kappa opioid receptor (OPRK1) (Homo sapiens (Human), UniProt P41145)
Experiment: OPRK1 antagonist assay (b-arrestin-2-TEV / b-lactamase reporter cell line, EC80 U-50488 challenge)
Type: cell-based
Settings: for IC50: read-out: IC50 nM (% inhib if other than 50%), antagonist mode vs EC80 U-50488, NA = not active at concentrations up to 10 μM

kappa opioid receptor (OPRK1), sequence (P41145 whole entry): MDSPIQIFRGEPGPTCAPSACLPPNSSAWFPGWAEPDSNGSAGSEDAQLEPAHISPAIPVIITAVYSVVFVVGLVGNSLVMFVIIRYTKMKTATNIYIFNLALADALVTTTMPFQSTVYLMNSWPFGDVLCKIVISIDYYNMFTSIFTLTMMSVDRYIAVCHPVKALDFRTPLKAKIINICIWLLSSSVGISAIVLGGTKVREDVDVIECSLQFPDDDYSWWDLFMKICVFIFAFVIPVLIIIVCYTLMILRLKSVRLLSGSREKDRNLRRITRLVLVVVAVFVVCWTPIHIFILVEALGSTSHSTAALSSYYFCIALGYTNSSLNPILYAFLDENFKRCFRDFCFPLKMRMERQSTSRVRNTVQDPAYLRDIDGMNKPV

| SMILES | IC50 | % inhib if other than 50% (% inhibition at the concentration given) |
| --- | --- | --- |
| COC(=O)c1cccnc1N1CCC(NC2CCCCC2)C(O)C1 (stereo not drawn) [compound 57] | 2200 nM | – |
| Cc1ccc2nc(N3CCC(NCC(C)C)CC3)c(-c3ccncn3)cc2c1 [compound 534] | 600 nM | – |
| Cc1nc(-c2cc3cc(C)c(F)cc3nc2N2CCC(NC3CCOCC3)CC2)no1 [compound 507] | 43 nM | – |
| COC1CN(c2ncc(C)cc2-c2cn(C)nn2)CCC1NC1CCCCC1 (stereo not drawn) [compound 392] | 2960 nM | – |
| COC(=O)c1cc(I)cnc1N1CCC(NC2CCCCC2)CC1 [compound 36] | 79 nM | – |
| Cc1ccc2nc(N3CCC(NC4(C)CCOCC4)CC3)c(-c3nc(C)no3)cc2c1 [compound 271] | 419 nM | – |
| COC1CCCCC1NC1CCN(c2nc3ccccc3cc2-c2nc(C)no2)CC1CO (stereo not drawn) [compound 199] | 59 nM | – |
| COC1CN(c2nc3ccc(C)cc3cc2-c2noc(C)n2)CCC1NCC(C)C (stereo not drawn) [compound 377] | 69 nM | – |
| Cc1noc(-c2cnc(N3CC[C@@H](NC4CCCCC4)[C@H](O)C3)c(C)c2)n1 [compound 177] | > 20 nM | – |
| Cc1noc(-c2cc(Br)cnc2N2CCC(NC3CCCCC3)CC2)n1 [compound 41] | 331 nM | – |
| Cc1ccc2nc(N3CCC(N(C)C4CCOCC4)CC3)c(-c3nc(C)no3)cc2c1 [compound 267] | 180 nM | – |
| Cc1noc(-c2cc3ccccc3nc2N2CCC(NC3CCOCC3)C(CO)C2)n1 (stereo not drawn) [compound 198] | 98 nM | – |
| Cc1ccc2nc(N3CCC(NC4CC5CCC4C5)CC3)c(-c3nc(C)no3)cc2c1 (stereo not drawn) [compound 265] | 49 nM | – |
| Cc1cnc(N2CCC(NC3CCCCC3)C(CO)C2)c(-c2ncco2)c1 (stereo not drawn) [compound 217] | 361 nM | – |
| Cc1noc(-c2nc3ccccc3nc2N2CCC(NC3CCCCC3)C(CO)C2)n1 (stereo not drawn) [compound 189] | 125 nM | – |
| CC(=O)c1cc(Br)cnc1N1CCC(NC2CCCCC2)CC1 [compound 96] | 6700 nM | – |
| COC1CN(c2nc3ccc(C)cc3cc2C(=O)N2CCCC2)CCC1NC1CCCCC1 (stereo not drawn) [compound 323] | 1340 nM | – |
| COC(=O)c1cc(Br)cnc1N1CCC(NC2CCCCC2OC)C(CO)C1 (stereo not drawn) [compound 82] | 127 nM | – |
| Cc1ccc2nc(N3CCC(N4CCCCC4)CC3)c(-c3nc(C)no3)cc2c1 [compound 266] | 1740 nM | – |
| COC(=O)c1cc(Br)cnc1N1CCC(NC(=O)C2CCCCC2)C(O)C1 (stereo not drawn) [C54] | > 20000 nM | – |

| SMILES | IC50 | % inhib if other than 50% (% inhibition at the concentration given) |
| --- | --- | --- |
| Cc1nc(-c2cc3ccc(F)c(C)c3nc2N2CCC(N[C@H]3CCCC[C@@H]3O)CC2)no1 [compound 510] | 115 nM | – |
| Cc1nc(-c2cc3ccc(F)cc3nc2N2CCC(N[C@H]3CCCOC3)CC2)no1 [compound 486] | 1070 nM | – |
| CC(=O)c1cc2cc(C)ccc2nc1N1CCC(NC2CCOCC2)CC1 [compound 478] | 900 nM | – |
| COC(=O)c1cc(F)cnc1N1CCC(NC2CCCCC2)CC1 [compound 72] | 6600 nM | – |
| COC(=O)c1cc(C)cnc1N1CCC(NC2CCCCC2)C(O)C1 (stereo not drawn) [compound 110] | 108 nM | – |
| COC1CN(c2nc3ccc(C)cc3cc2C(=O)OC(C)C)CCC1NC1CCCCC1 (stereo not drawn) [compound 282] | 38 nM | – |
| Cc1ccc2nc(N3CCC(NCC4CCCO4)CC3)c(-c3nc(C)no3)cc2c1 (stereo not drawn) [compound 262] | 60 nM | – |
| COC1CN(c2nc(CO)ccc2-c2nc(C)no2)CCC1NC1CCCCC1 (stereo not drawn) [compound 425] | 60 nM | – |
| Cc1noc(-c2cc3c(F)cccc3nc2N2CCC(NC3CCOCC3)CC2)n1 [compound 477] | 42 nM | – |
| COC(=O)c1cc2ccccc2nc1N1CCC(NC2CCCCC2)C(OC)C1 (stereo not drawn) [compound 158] | 431 nM | – |
| COC1CN(c2nc3ccccc3cc2-c2nc(C)no2)CCC1NCC(C)C (stereo not drawn) [compound 374] | 45 nM | – |
| COC(=O)c1cc(Cl)cnc1N1CC[C@H](NC2CCCCC2)[C@@H](O)C1 [compound 111] | 281 nM | – |
| COC(=O)c1cc(N)cnc1N1CCC(NC2CCCCC2)CC1 [compound 85] | 1800 nM | – |
| COC(=O)c1cc(Br)cnc1N1CCC(NC2CCCC2O)CC1 (stereo not drawn) [compound 3] | 287 nM | – |
| COC(=O)c1cc(Br)cnc1N1CCC(NC2CCCC2)CC1 [compound 24] | 120 nM | – |
| COC1CN(c2ncc(C)cc2C=O)CCC1NC1CCCCC1 (stereo not drawn) [C69] | 30000 nM | – |
| c1cnc(-c2cc3ccccc3nc2N2CCC(NC3CCOCC3)CC2)nc1 [compound 286] | 298 nM | – |
| COC1CN(c2ncc(Br)cc2-c2nc(C)no2)CCC1NC1CCCCC1 (stereo not drawn) [compound 143] | 100 nM | – |
| COC(=O)c1cc(I)cnc1N1CCC(NC2CCCCC2C)C(CO)C1 (stereo not drawn) [compound 89] | 116 nM | – |
| COC(=O)c1cccnc1N1CCC(NC2CCCCCC2)C(O)C1 (stereo not drawn) [compound 55] | 1800 nM | – |

| SMILES | IC50 | % inhib if other than 50% (% inhibition at the concentration given) |
| --- | --- | --- |
| CNC(=O)c1cc2cc(C)ccc2nc1N1CCC(NC2CCCCC2)C(OC)C1 (stereo not drawn) [compound 278] | 4720 nM | – |
| Cc1cnc(N2CCC(NC3CCCCC3)C(CO)C2)c(C#N)c1 (stereo not drawn) [C68] | > 20000 nM | – |
| Cc1ccc2nc(N3CCC(NC4CCCCC4)CC3)c(-c3ccncn3)cc2c1 [compound 532] | 334 nM | – |
| CO[C@@H]1CN(c2ncc(C)cc2C(=O)OC(C)C)CC[C@@H]1NC1CCCCC1 [compound 361] | 1440 nM | – |
| Cc1ccc2nc(N3CCC(NC4CCCCCCC4)CC3)c(-c3nc(C)no3)cc2c1 [compound 260] | 261 nM | – |
| CO[C@H]1CN(c2nc3cc(F)c(C)cc3cc2-c2nc(C)no2)CC[C@H]1NC1CCCCC1 [compound 496] | 54 nM | – |
| COC(=O)c1cc(C2CC2)cnc1N1CCC(NC2CCCCC2)C(O)C1 (stereo not drawn) [C66] | 17000 nM | – |
| Cc1nc(-c2cc3ccc(F)c(C)c3nc2N2CCC(NC3CCCCC3)CC2)no1 [compound 503] | 74 nM | – |
| COC(=O)c1cc(Br)cnc1N1CCC(NC2CC3CCC2C3)CC1 (stereo not drawn) [compound 28] | 387 nM | – |
| COC(=O)c1cc(NC(=O)NC(C)C)cnc1N1CCC(NC2CCCCC2)CC1 [C35] | 17000 nM | – |
| COC(=O)c1cc(Br)cnc1N1CCC(NC2CCOCC2)C(CO)C1 (stereo not drawn) [compound 81] | 126 nM | – |
| COC(=O)c1cc2ccccc2nc1N1CCC(NC2CCCCC2)C(CO)C1 (stereo not drawn) [compound 157] | 37 nM | – |
| CCOC(=O)c1c(Cl)cc(C)nc1N1CCC(N[C@@H]2CCCC[C@H]2O)CC1 [compound 2] | 4500 nM | 65% |
| COC(=O)c1cc(Br)cnc1N1CCC(N(C)C2CCCCC2)CC1 [compound 19] | 2700 nM | – |
| Cc1ccc2nc(N3CCC(NC4CCCCC4)C(CO)C3)c(-c3nnc(C)o3)cc2c1 (stereo not drawn) [compound 301] | 38 nM | – |
| OCc1cc(Br)cnc1N1CCC(NC2CCCCC2)CC1 [compound 76] | 11300 nM | – |
| CCc1noc(-c2cc(Br)cnc2N2CCC(NC3CCCCC3)CC2)n1 [compound 107] | 11000 nM | – |
| COC(=O)c1cc(I)cnc1N1CCC(NC2CCCC2)C(CO)C1 (stereo not drawn) [compound 88] | 52 nM | – |
| COC(=O)c1cc(-c2ccsc2)cnc1N1CCC(NC2CCCCC2)CC1 [compound 32] | 5300 nM | – |

The next lines start with the values.

| IC50 | % inhib if other than 50% (% inhibition at the concentration given) | SMILES |
| --- | --- | --- |
| 17 nM | – | Cc1noc(-c2cc(C)c(C)nc2N2CCC(NC3CCCCC3C)C(CO)C2)n1 (stereo not drawn) [compound 224] |
| 16 nM | – | Cc1noc(-c2cc3cc(Cl)ccc3nc2N2CCC(NC3CCCCC3)C(CO)C2)n1 (stereo not drawn) [compound 239] |
| 8 nM | – | COC1CN(c2nc3ccccc3cc2-c2nc(C)no2)CCC1NC1CCOCC1 (stereo not drawn) [compound 325] |
| 9 nM | – | COC1CN(c2nc3ccc(C)cc3cc2-c2nc(C)no2)CCC1NC1CCCCC1F (stereo not drawn) [compound 249] |
| 12 nM | – | CO[C@H]1CN(c2nc3cc(Cl)ccc3cc2-c2nc(C)no2)CC[C@H]1NC1CCCCC1 [compound 537] |
| 10 nM | – | Cc1noc(-c2cc3c(F)cccc3nc2N2CCC(NC3CCCCC3)C(CO)C2)n1 (stereo not drawn) [compound 253] |
| 7 nM | – | Cc1noc(-c2cc3ccc(F)cc3nc2N2CCC(NC3CCCCC3)CC2)n1 [compound 515] |
| 6 nM | – | Cc1ccc2nc(N3CCC(NC4CCC(F)(F)CC4)CC3)c(-c3nc(C)no3)cc2c1 [compound 435] |
| 4.2 nM | – | Cc1ccc2nc(N3CCC(NCC(C)C)CC3)c(-c3nc(C4CC4)no3)cc2c1 [compound 354] |
| 27 nM | – | COC1CN(c2nc(C)c(C)cc2-c2nc(C)no2)CCC1NC1CCCC1 (stereo not drawn) [compound 317] |
| 24 nM | – | Cc1cnc(-c2cc3ccccc3nc2N2CCC(NC3CCCCC3)CC2)cn1 [compound 466] |
| 23 nM | – | CCOC(=O)c1cc(Br)cnc1N1CC[C@@H](NC2CCCCC2)[C@H](O)C1 [compound 134] |
| 14 nM | – | COC1CN(c2nc3ccc(C)cc3cc2-c2nc(C3CC3)no2)CCC1NCC(C)C (stereo not drawn) [compound 376] |
| 33 nM | – | Cc1noc(-c2cc3cc(C)c(F)cc3nc2N2CCC(NCC(C)C)CC2)n1 [compound 498] |
| 8 nM | – | Cc1ccc2nc(N3CCC(NCC(C)O)CC3)c(-c3nc(C)no3)cc2c1 (stereo not drawn) [compound 360] |
| 36 nM | – | COC(=O)c1cc(I)cnc1N1CCC(NC2CCCCCC2)C(CO)C1 (stereo not drawn) [compound 75] |
| 32 nM | – | Cc1noc(-c2cc(C)c(C)nc2N2CC[C@H](NC3CCCCC3)[C@@H](O)C2)n1 [compound 543] |
| 12 nM | – | COC1CN(c2nc3cccc(F)c3cc2-c2nc(C)no2)CCC1NC1CCCCC1 (stereo not drawn) [compound 252] |
| 5 nM | – | CO[C@H]1CN(c2nc3cc(F)ccc3cc2-c2nc(C)no2)CC[C@H]1NC1CCCCC1 [compound 508] |
| 1.9 nM | – | COC1CN(c2nc3ccc(C)cc3cc2-c2nc(C)no2)CCC1NC1CCOCC1 (stereo not drawn) [compound 326] |
| 27 nM | – | Cc1nc(-c2cc3cc(C)c(F)cc3nc2N2CCC(NCC(C)C)CC2)no1 [compound 513] |
| 8.5 nM | – | Cc1ccc2nc(N3CC[C@@H](NC4CCCCC4)[C@H](O)C3)c(-c3nc(C)no3)cc2c1 [compound 213] |
| 4 nM | – | CCc1noc(-c2cc3cc(C)ccc3nc2N2CCC(NC3CCCC3)C(OC)C2)n1 (stereo not drawn) [compound 310] |
| 8 nM | – | Cc1ccc2nc(N3CCC(NC4CCCCC4F)CC3)c(-c3nc(C)no3)cc2c1 (stereo not drawn) [compound 250] |
| 5 nM | – | Cc1ccc2cc(-c3nc(C)no3)c(N3CCC(NC4CCCCC4)C(CO)C3)nc2c1 (stereo not drawn) [compound 229] |
| 19 nM | – | COC1CN(c2ncc(C)cc2-c2nc(C)no2)CCC1NC1CCCCCC1 (stereo not drawn) [compound 318] |
| 17 nM | – | CCc1ccc2nc(N3CCC(N[C@H](C)CC)CC3)c(-c3nc(C)no3)cc2c1 [compound 525] |
